ChEMBL document CHEMBL5344420, “Flexibility in the bridge of chalcone derivatives is important for the inhibition of cellular growth” (Bioorg Med Chem Lett, 2023)

The molecules below were run on A549 (assay: Antiproliferative activity against human A549 cells assessed as cell growth inhibition measured after 48 hrs by CellTiter Aqueous One Solution MTS assay). Conditions: A549, 48 h.
Assay type: functional, cell-based

IC50 [µM] | SMILES
> 30 | COc1ccc(/C=C2\CCc3ccccc3C2=O)cc1
> 30 | O=C1/C(=C/c2ccccc2)Cc2ccccc21
> 30 | O=C1/C(=C/c2ccc(F)cc2)CCc2ccccc21
> 30 | Cc1ccc(/C=C2\CCc3ccccc3C2=O)cc1
> 30 | O=C1/C(=C/c2ccc(F)cc2)Cc2ccccc21
> 30 | COc1ccc(/C=C2\Cc3ccccc3C2=O)cc1
5.35 | O=C(/C=C/c1ccc(OC(F)(F)F)cc1)c1ccccc1
> 30 | O=C1/C(=C/c2ccc(OC(F)(F)F)cc2)CCc2ccccc21
26.6 | O=C(/C=C/c1ccc(O)cc1)c1ccccc1 [4-HYDROXYCHALCONE]
5.2 | COc1ccc(/C=C/C(=O)c2ccccc2)cc1 [4-METHOXY CHALCONE]

The remaining lines, values behind:

SMILES | IC50 [µM]
O=C1/C(=C/c2ccc(O)cc2)CCc2ccccc21 | > 30
Cc1ccc(/C=C2\Cc3ccccc3C2=O)cc1 | > 30
O=C1/C(=C/c2ccccc2)CCc2ccccc21 | > 30
Cc1ccc(/C=C/C(=O)c2ccccc2)cc1 | 16.8
O=C1/C(=C/c2ccc(OC(F)(F)F)cc2)Cc2ccccc21 | > 30
O=C1/C(=C/c2ccc(O)cc2)Cc2ccccc21 | > 30
O=C(/C=C/c1ccccc1)c1ccccc1 [CHALCONE] | 12.2
